According to patent US20050238628A1, “Methods for treating cancer” (priority 2004, published 2005):
“Also recorded” adds a separate entry of the source.

What was measured:
[1] = tested on: Ba/F3 cells expressing the GyrB/Flt3 construct; test: Growth of Ba/F3 cells expressing GyrB/Flt3 in the presence of the CID coumermycin; format: cell-based; settings: FIG. 1
From the text: (§1) An MSCV-based vector was constructed that encodes a fusion protein containing a myristylation domain linked to DNA gyrase B, which in turn is linked to the intracellular portion of murine flt-3, which in turn is linked to an HA epitope tag. […] Ba/F3 cells expressing the GyrB/Flt3 construct can be distinguished from Ba/F3 cells expressing EpoR/Abl using intracellular flow cytometry with an antibody directed against the HA tag.

[2] = tested on: Ba/F3 cells expressing EpoR/Abl mixed with Ba/F3 cells expressing GyrB/Flt3; test: Mixed culture of EpoR/Abl and GyrB/Flt3 Ba/F3 cells, HA tag flow cytometry; format: cell-based; settings: coumermycin 1 nM, absence of IL-3, 4 days, flow cytometry for HA tag; FIG. 2
Description: A cDNA containing the EpoRIAbl construct was used to transduce Ba/F3 cells by retroviral gene transfer. After two days, IL-3 containing medium was washed away, and cells were cultured in the presence of erythropoietin (3 units/ml), without IL-3, to generate a polyclonal pool of erythropoietin dependent cells.
as §1
After 4 days, the frequency of cells expressing the HA tag was determined by flow cytometry.

Reh cells (EpoR) = test: STAT5 phosphorylation in Reh cells upon addition of erythropoietin; format: cell-based; settings: human TEL/AML1+ ALL line
From the text: A number of nonerythroid cell lines have been examined for EpoR expression.

Ba/F3EpoRAbl cells = settings: nude mice, tail vein injection of cells followed by injections of erythropoietin; cited from earlier work

| Substance | growth of Ba/F3 cells in the presence of the CID [1] | erythropoietin responsive (HA-negative) cells in mixed culture [2] | STAT5 phosphorylation (Reh cells (EpoR)) | death of mice injected with Ba/F3EpoRAbl cells (Ba/F3EpoRAbl cells) |
| --- | --- | --- | --- | --- |
| coumermycin | capable of growth; also recorded: capable of group | sharp reduction in erythropoietin responsive (HA-negative) cells | – | – |
| erythropoietin | – | – | exhibit STAT5 phosphorylation | induce death with a timecourse that is dependent on the concentration of exogenously administered Epo |
